The source of these data is publication PMC10283505, “CVM-1118 (foslinanib), a 2-phenyl-4-quinolone derivative, promotes apoptosis and inhibits vasculogenic mimicry via targeting TRAP1” (Pathology and Oncology Research, 2023).

One test has as its system HIF-1α. Put plainly: Western blot of HIF-1α protein (hypoxia). It counts as cell-based, human. The conditions noted are these: hypoxia 72 h. On the procedure:
Changes in the expression HIF-1α protein in SK-MEL28, SK-OV3, MDA-MB-231 and COLO205 cells in response to treatment with CVM-1125 was performed as follows: 5.0 × 10^6 cells were grown under hypoxic conditions (as previously described) for 72 h, with or without 100 nM CVM-1125 in T175 culture flasks, then sub-confluent cultures harvested and whole cell protein lysates prepared and analyzed by Western blot (as above). Thirty micrograms of protein was loaded per lane of the gel for each sample followed by detection of HIF-1α protein on the final blot using a polyclonal rabbit anti- HIF-1α antibody (#3716; Cell Signaling Technologies), secondary antibody plus HRP (NA934V), then ECL. The blots were then stripped and re-probed for β-actin protein as a control (as above).

For another test, the system named is CAKI-1. Put plainly: NCI 60 cytotoxicity screening. The conditions noted are these: Homo sapiens; CAKI-1, Renal. It counts as cell-based.
The next test relates to CCRF-CEM. Put plainly: NCI 60 cytotoxicity screening. The following applies: Homo sapiens, Leukemia. It counts as cell-based.
The subject of a further test is SR. As to the kind of experiment: NCI 60 cytotoxicity screening. It is filed as cell-based. The conditions noted are these: Homo sapiens, Leukemia.
The next test deals with SNB-75. As to the kind of experiment: NCI 60 cytotoxicity screening. The following applies: Homo sapiens; SNB-75, CNS. It is filed as cell-based.
The next test has as its target T1, Catenin β-1 (Homo sapiens, UniProt P35222).
T1 sequence (P35222 1-781): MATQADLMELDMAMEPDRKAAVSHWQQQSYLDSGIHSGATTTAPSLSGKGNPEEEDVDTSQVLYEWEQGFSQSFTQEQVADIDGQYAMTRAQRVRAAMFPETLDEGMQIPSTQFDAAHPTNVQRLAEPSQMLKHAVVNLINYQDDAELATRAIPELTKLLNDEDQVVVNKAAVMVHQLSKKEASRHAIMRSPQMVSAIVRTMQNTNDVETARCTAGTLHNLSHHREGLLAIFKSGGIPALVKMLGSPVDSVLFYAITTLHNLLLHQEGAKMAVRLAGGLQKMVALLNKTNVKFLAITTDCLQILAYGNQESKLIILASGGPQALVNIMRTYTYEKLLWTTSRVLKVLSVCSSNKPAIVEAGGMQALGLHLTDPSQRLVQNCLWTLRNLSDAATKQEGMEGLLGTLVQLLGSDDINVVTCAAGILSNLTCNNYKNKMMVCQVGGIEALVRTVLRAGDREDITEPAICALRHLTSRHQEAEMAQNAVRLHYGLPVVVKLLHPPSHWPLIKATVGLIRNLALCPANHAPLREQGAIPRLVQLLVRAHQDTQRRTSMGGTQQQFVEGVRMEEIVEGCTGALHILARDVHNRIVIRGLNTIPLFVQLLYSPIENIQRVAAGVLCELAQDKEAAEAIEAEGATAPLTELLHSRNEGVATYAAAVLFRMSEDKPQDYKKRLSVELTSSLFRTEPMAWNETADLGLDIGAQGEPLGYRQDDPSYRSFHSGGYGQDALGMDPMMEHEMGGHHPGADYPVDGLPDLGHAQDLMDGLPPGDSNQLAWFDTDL
Put plainly: Surface plasmon resonance (Biacore). It is filed as binding. The following applies: Catenin β-1, SPR.

The subject of the next test is NCI-H23. Put plainly: NCI 60 cytotoxicity screening. It is filed as cell-based. The following applies: Homo sapiens; NCI-H23, NSCLC.
The subject of a further test is OVCAR-3. As to the kind of experiment: NCI 60 cytotoxicity screening. It counts as cell-based. The conditions noted are these: Homo sapiens; OVCAR-3, Ovarian.
For a further test, the system named is SF-295. As to the kind of experiment: NCI 60 cytotoxicity screening. The following applies: Homo sapiens; SF-295, CNS. It is filed as cell-based.
In another test the test system is HCT-116. Put plainly: In vivo vasculogenic mimicry (CD31−/RBC+ channels) in orthotopic HCT-116 xenograft. The conditions noted are these: 100 mg/kg oral, excised colon tumor tissues, vs vehicle. On the set-up: species or system BALB/c nude mice. As to the method:
This animal study was contracted to CrownBio International R&D Center (Beijing, China) and was conducted under the approval of the Animal Ethics Committee at CrownBio in compliance with institutional and national guidelines. Seven-to eight-week-old female BALB/c nude mice were obtained from HFK Bio-Technology Co., Ltd. (Beijing, China). HCT-116 cells (2 × 10^6) were suspended in 20 μL PBS and then injected into the cecal wall. Treatment began on day 14 after cell inoculation when tumor reached ∼100 mm^3 measured in a satellite group of three mice. Treatment groups include vehicle control [PEG400:pH 10 carbonate buffer (40:60)], CVM-1118 at 20, 50, and 100 mg/kg given orally daily for 28 days, and CVM-1118 at 20 mg/kg given as intravenous injection once every 2 days for 7 times. Tumor volumes were measured at the end of in-life study on day 43. […] Briefly, rabbit anti-human CD31 antibody (Abcam) was used as the primary Ab for the staining and the number of channels with CD31+/red blood cell (RBC)+, or CD31−/RBC+ were counted based on five light fields (×200) on the whole section of each sample in each group under microscope. […] Statistical analysis for VM formation was evaluated using Mann-Whitney test. All data were analyzed using GraphPad Prism 9.5.

Usually GI50 stands for the concentration at which growth is held to half of that of the control. Low readings indicate more potent growth inhibition, high ones less potent growth inhibition.

Take `COc1ccc2[nH]c(-c3cccc(F)c3)cc(=O)c2c1O` [CVM-1125]: the “reduction of HIF-1α protein levels” value in the test on HIF-1α (COLO205, 100 nM) is 9%; with HIF-1α (MDA-MB-231, 100 nM), 17%; with HIF-1α (SK-MEL28, 100 nM), 28%; in the test with HIF-1α (SKOV3, 100 nM), 25%. Moreover, the GI50 in the test with CAKI-1 was 46.7 nM; in the test with CCRF-CEM, 34.8 nM; in the test on SR it was 12 nM; in the test on SNB-75, 15 nM; in the test on NCI-H23, 34.5 nM; in the test on OVCAR-3, 19.1 nM. In the test on SF-295, the GI50 is 25.5 nM. Moreover, the “Association (ka)” value at Catenin β-1 is “No interaction”. Further, on Catenin β-1, the “Dissociation (kd)” value is “No interaction”. In addition, the “KD (kd/ka)” value at Catenin β-1 is “No interaction”.
Regarding `COc1ccc2[nH]c(-c3cccc(F)c3)cc(=O)c2c1OP(=O)(O)O` [CVM-1118], the “reduction of VM network formation (VM channels)” value in the test on HCT-116 was 85%.
